Measurements taken from patent US20220054469A1, “FARNESOID X RECEPTOR AGONISTS AND USES THEREOF” (Metacrine, Inc., priority 2018, published 2022).

Each compound was assayed against T1, hFXR (Homo sapiens, UniProt Q96RI1) (assay: In Vitro FXR Assay (TK)). Settings: CV-1 cells transfected with hFXR, hRXR, TK-ECRE-luc and pCMX-YFP; incubated with compound for 18 hrs; luminescence.
T1 construct: expressed in transfected cells; host or cells: CV-1 cells
T1 sequence (Q96RI1 1-486): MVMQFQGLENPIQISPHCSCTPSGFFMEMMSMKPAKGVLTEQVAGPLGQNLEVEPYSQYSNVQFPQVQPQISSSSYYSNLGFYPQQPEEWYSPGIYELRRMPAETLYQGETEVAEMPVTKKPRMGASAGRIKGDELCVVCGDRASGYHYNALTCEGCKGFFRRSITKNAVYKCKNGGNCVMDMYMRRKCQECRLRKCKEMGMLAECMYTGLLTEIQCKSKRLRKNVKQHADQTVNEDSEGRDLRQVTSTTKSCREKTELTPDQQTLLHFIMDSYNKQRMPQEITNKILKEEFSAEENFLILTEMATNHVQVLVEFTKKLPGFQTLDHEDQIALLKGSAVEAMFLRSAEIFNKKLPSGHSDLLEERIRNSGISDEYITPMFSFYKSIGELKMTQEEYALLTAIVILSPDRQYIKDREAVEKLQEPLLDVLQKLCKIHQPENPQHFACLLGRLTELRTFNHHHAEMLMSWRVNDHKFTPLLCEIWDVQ
T1 sequence (P19793 1-462 partner): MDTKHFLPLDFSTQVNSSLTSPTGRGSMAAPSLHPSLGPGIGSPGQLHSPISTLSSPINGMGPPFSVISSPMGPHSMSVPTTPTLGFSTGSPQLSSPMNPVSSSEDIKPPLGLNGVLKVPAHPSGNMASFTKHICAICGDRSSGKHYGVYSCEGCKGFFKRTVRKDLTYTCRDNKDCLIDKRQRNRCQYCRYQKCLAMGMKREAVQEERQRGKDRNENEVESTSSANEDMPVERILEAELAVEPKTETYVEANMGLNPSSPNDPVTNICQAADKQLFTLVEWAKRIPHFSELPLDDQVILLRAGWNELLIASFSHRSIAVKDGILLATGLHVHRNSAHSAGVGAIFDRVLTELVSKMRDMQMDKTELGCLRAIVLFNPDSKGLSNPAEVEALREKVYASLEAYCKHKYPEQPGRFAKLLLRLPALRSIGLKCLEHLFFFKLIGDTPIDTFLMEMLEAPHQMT
Type: cell-based
Description: Example B-1: In Vitro FXR Assay (TK)
CV-1 cells were seeded at a density of 2,000,000 cells in a T175 flask with DMEM+10% charcoal double-stripped FBS and incubated at 37° C. in 5% CO2 for 18 h (O/N).
After 18 h of incubation, the medium in the T175 flask was changed with fresh DMEM+10% charcoal super-stripped serum. In a polypropylene tube, 2500 μL OptiMEM (Life Technologies, Cat #31985-062) was combined with expression plasmids for hFXR, hRXR, TK-ECRE-luc and pCMX-YFP. The tube was then briefly vortexed and incubated at room temperature for 5 minutes. Transfection reagent (X-tremeGENE HP from Roche, Cat #06 366 236 001) was added to the OptiMEM/plasmid mixture vortexed and incubated at room temperature for 20 minutes. Following incubation, the transfection reagent/DNA mixture complex was added to cells in the T175 flask and the cells were incubated at 37° C. in 5% CO2 for 18 h (O/N).
Compounds were serially diluted in DMSO and added to transfected CV-1 cells. The cells were then incubated for 18 hrs. The next day cells were lysed and examined for luminescence.

| EC50 [nM] | SMILES |
| --- | --- |
| 50 to 1000 | COc1ccc(C23CCC(CN(c4cc(-n5cnc(C(C)C)c5)ccn4)C(=O)[C@H]4CC[C@H](CC(=O)O)CC4)(CC2)CC3)cc1C [Compound 4.25, trans-2-(4-((4-(4-Isopropyl-1H-imidazol-1-yl)pyridin-2-yl)((4-(4-methoxy-3-methylphenyl)bicyclo[2.2.2]octan-1-yl)methyl)carbamoyl)cyclohexyl)acetic acid] |
| ≤ 50 | COc1ccc(C23CCC(CN(c4cc(-c5cnn(C(C)(C)C)c5)ccn4)C(=O)[C@H]4CC[C@H](CC(=O)O)CC4)(CC2)CC3)cc1C [Compound 4.04, trans-2-(4-((4-(1-(tert-Butyl)-1H-pyrazol-4-yl)pyridin-2-yl)((4-(4-methoxy-3-methylphenyl)bicyclo[2.2.2]octan-1-yl)methyl)carbamoyl)cyclohexyl)acetic acid] |
| ≤ 50 | COc1ccc(C23CCC(CN(c4cccc(-n5cnc(C6CC6)c5)c4)C(=O)[C@H]4CC[C@H](CC(=O)O)CC4)(CC2)CC3)cc1C [Compound 4.29, trans-2-(-4-((3-(4-Cyclopropyl-1H-imidazol-1-yl)phenyl)((4-(4-methoxy-3-methylphenyl)bicyclo[2.2.2]octan-1-yl)methyl)carbamoyl)cyclohexyl)acetic acid] |
| ≤ 50 | COc1ccc(C23CCC(CN(c4cc(-c5cnn(C(C)(C)C)c5)ccn4)C(=O)[C@H]4CC[C@H](C(=O)O)CC4)(CC2)CC3)cc1C [Compound 4.03, trans-4-((4-(1-(tert-Butyl)-1H-pyrazol-4-yl)pyridin-2-yl)((4-(4-methoxy-3-methylphenyl)bicyclo[2.2.2]octan-1-yl)methyl)carbamoyl)cyclohexanecarboxylic acid] |
| 50 to 1000 | COc1ccc(C23CCC(CN(c4cc(-c5noc(C(C)C)n5)ccn4)C(=O)[C@H]4CC[C@H](CC(=O)O)CC4)(CC2)CC3)cc1C [Compound 4.21, trans-2-(4-((4-(5-lsopropyl-1,2,4-oxadiazol-3-yl)pyridin-2-yl)((4-(4-methoxy-3-methylphenyl)bicyclo[2.2.2]octan-1-yl)methyl)carbamoyl)cyclohexyl)acetic acid] |
| 50 to 1000 | COc1ccc(C23CCC(CN(c4cc(-c5cnn(C(C)C)c5)ncn4)C(=O)[C@H]4CC[C@H](CC(=O)O)CC4)(CC2)CC3)cc1C [Compound 3, trans-2-(4-((6-(1-Isopropyl-1H-pyrazol-4-yl)pyrimidin-4-yl)((4-(4-methoxy-3-methylphenyl)bicyclo[2.2.2]octan-1-yl)methyl)carbamoyl)cyclohexyl)acetic acid] |
| ≤ 50 | COc1ccc([C@H]2CC[C@H](CN(c3cccc(-c4cnn(C(C)(C)C)c4)c3)C(=O)[C@H]3CC[C@H](CC(=O)O)CC3)CC2)cc1C [Compound 2.04, 2-(trans-4-((3-(1-(tert-Butyl)-1H-pyrazol-4-yl)phenyl)((trans-4-(4-methoxy-3-methylphenyl)cyclohexyl)methyl)carbamoyl)cyclohexyl)acetic acid] |
| ≤ 50 | COc1ccc(C23CCC(CN(c4cc(-c5ccn(C(C)C)n5)ccn4)C(=O)[C@H]4CC[C@H](CC(=O)O)CC4)(CC2)CC3)cc1C [Compound 4.23, trans-2-(4-((4-(1-Isopropyl-1H-pyrazol-3-yl)pyridin-2-yl)((4-(4-methoxy-3-methylphenyl)bicyclo[2.2.2]octan-1-yl)methyl)carbamoyl)cyclohexyl)acetic acid] |
| 50 to 1000 | COc1ccc(C23CCC(CN(c4cc(-c5cnn(C(C)(C)C)c5)ncn4)C(=O)[C@H]4CC[C@H](CC(=O)O)CC4)(CC2)CC3)cc1C [Compound 4.07, trans-2-(4-((6-(1-(tert-Butyl)-1H-pyrazol-4-yl)pyrimidin-4-yl)((4-(4-methoxy-3-methylphenyl)bicyclo[2.2.2]octan-1-yl)methyl)carbamoyl)cyclohexyl)acetic acid] |
| ≤ 50 | COc1ccc(C23CCC(CN(c4cc(-c5cnc(C(C)(C)C)s5)ccn4)C(=O)[C@H]4CC[C@H](CC(=O)O)CC4)(CC2)CC3)cc1C [Compound 4.17, trans-2-(4-((4-(2-(tert-Butyl)thiazol-5-yl)pyridin-2-yl)((4-(4-methoxy-3-methylphenyl)bicyclo[2.2.2]octan-1-yl)methyl)carbamoyl)cyclohexyl)acetic acid] |
| ≤ 50 | COc1ccc([C@H]2CC[C@H](CN(c3cccc(-c4cnn(C(C)(C)C)c4)c3)C(=O)[C@H]3CC[C@H](CCC(=O)O)CC3)CC2)cc1C [Compound 3.03, trans-3-(4-((3-(1-(tert-Butyl)-1H-pyrazol-4-yl)phenyl)((trans-4-(4-methoxy-3-methylphenyl)cyclohexyl)methyl)carbamoyl)cyclohexyl)propanoic acid] |
| ≤ 50 | COc1ccc(C23CCC(CN(c4nccc(-c5cnn(C(C)C)c5)n4)C(=O)[C@H]4CC[C@H](CC(=O)O)CC4)(CC2)CC3)cc1C (relative stereo) [Compound 4.09, trans-2-(4-((4-(1-Isopropyl-1H-pyrazol-4-yl)pyrimidin-2-yl)((4-(4-methoxy-3-methylphenyl)bicyclo[2.2.2]octan-1-yl)methyl)carbamoyl)cyclohexyl)acetic acid] |
| ≤ 50 | COc1ccc(C23CCC(CN(c4cccc(-c5cnn(C(C)C)c5)c4)C(=O)[C@H]4CC[C@H](C(=O)O)CC4)(CC2)CC3)cc1C [Compound 4.01, trans-4-((3-(1-Isopropyl-1H-pyrazol-4-yl)phenyl)((4-(4-methoxy-3-methylphenyl)bicyclo[2.2.2]octan-1-yl)methyl)carbamoyl)cyclohexanecarboxylic acid] |
| ≤ 50 | COc1ncc(C23CCC(CN(c4cc(-c5cnn(C(C)(C)C)c5)ccn4)C(=O)[C@H]4CC[C@H](CC(=O)O)CC4)(CC2)CC3)cc1C [Compound 4.13, trans-2-(4-((4-(1-(tert-Butyl)-1H-pyrazol-4-yl)pyridin-2-yl)((4-(6-methoxy-5-methylpyridin-3-yl)bicyclo[2.2.2]octan-1-yl)methyl)carbamoyl)cyclohexyl)acetic acid] |
| ≤ 50 | COc1ccc(C23CCC(CN(c4cccc(-c5cnn(C(C)C)c5)c4F)C(=O)[C@H]4CC[C@H](CC(=O)O)CC4)(CC2)CC3)cc1C [Compound 2.08, trans-2-(4-((2-Fluoro-3-(1-isopropyl-1H-pyrazol-4-yl)phenyl)((4-(4-methoxy-3-methylphenyl)bicyclo[2.2.2]octan-1-yl)methyl)carbamoyl)cyclohexyl)acetic acid] |
| 50 to 1000 | COc1ccc(C23CCC(CN(c4cncc(-c5cnn(C(C)C)c5)n4)C(=O)[C@H]4CC[C@H](CC(=O)O)CC4)(CC2)CC3)cc1C (relative stereo) [Compound 4.10, trans-2-(4-((6-(1-Isopropyl-1H-pyrazol-4-yl)pyrazin-2-yl)((4-(4-methoxy-3-methylphenyl)bicyclo[2.2.2]octan-1-yl)methyl)carbamoyl)cyclohexyl)acetic acid] |
| ≤ 50 | COc1ccc(C23CCC(CN(c4cc(-n5cnc(C6CC6)n5)ccn4)C(=O)[C@H]4CC[C@H](CC(=O)O)CC4)(CC2)CC3)cc1C [Compound 4.27, trans-2-(4-((4-(3-Cyclopropyl-1H-1,2,4-triazol-1-yl)pyridin-2-yl)((4-(4-methoxy-3-methylphenyl)bicyclo[2.2.2]octan-1-yl)methyl)carbamoyl)cyclohexyl)acetic acid] |
| 50 to 1000 | COc1ccc(C23CCC(CN(c4cc(-n5ccc(C(C)C)n5)ccn4)C(=O)[C@H]4CC[C@H](CC(=O)O)CC4)(CC2)CC3)cc1C [Compound 4.24, trans-2-(4-((4-(3-Isopropyl-1H-pyrazol-1-yl)pyridin-2-yl)((4-(4-methoxy-3-methylphenyl)bicyclo[2.2.2]octan-1-yl)methyl)carbamoyl)cyclohexyl)acetic acid] |
| 50 to 1000 | COc1ccc(C23CCC(CN(c4cc(-c5cnn(C(C)C)c5)ccn4)C(=O)[C@H]4CC[C@@H](C(=O)O)CC4)(CC2)CC3)cc1C [Compound 3.01, cis-4-((4-(1-Isopropyl-1H-pyrazol-4-yl)pyridin-2-yl)((4-(4-methoxy-3-methylphenyl)bicyclo[2.2.2]octan-1-yl)methyl)carbamoyl)cyclohexanecarboxylic acid] |
